Patent publication US5430027A, “2-chloro-N^6 -substituted adenosines, their pharmaceutical compositions, and activity in treating ischemias” (Novo Nordisk A/S, priority 1992, dated 1995)

Columns and labels:
[1] = target: T1, adenosine A1 receptor (Rattus norvegicus, UniProt P25099); assay: In vitro binding to adenosine A1 receptor, [3H]-R-PIA radioligand; conditions: for Ratio A2/A1: A2 binding Ki50 divided by A1 binding Ki50 (selectivity); for Ki: radioligand [3H]-R-PIA, read-out: A1 receptor binding (Ki50)
T1 construct: from tissue
T1 sequence (P25099 1-326): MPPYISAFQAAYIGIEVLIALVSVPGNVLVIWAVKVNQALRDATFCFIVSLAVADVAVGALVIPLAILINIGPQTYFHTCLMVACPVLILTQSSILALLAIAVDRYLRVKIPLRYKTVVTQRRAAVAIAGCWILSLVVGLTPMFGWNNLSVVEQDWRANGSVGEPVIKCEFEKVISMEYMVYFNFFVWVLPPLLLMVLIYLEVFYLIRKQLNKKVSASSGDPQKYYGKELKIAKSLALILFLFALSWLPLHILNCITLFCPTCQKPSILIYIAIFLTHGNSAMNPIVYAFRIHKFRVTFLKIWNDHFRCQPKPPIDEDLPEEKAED
Method: (§1) Evaluation of in vitro binding to adenosine A1 and A2 receptors
(§2) The affinity of the novel compounds described in this invention for the adenosine A1 receptor was determined essentially as described in the literature using [^3 H]-R-PIA as a radioligand (Naunyn-Schmiedeberg's Archives of Pharmacology, 1980, 313, 179-187). Affinity for the A2 receptor was measured using the radioligand [^3 H]-CGS 21680 (European Journal of Pharmacology, 1989, 168, 243-246), and the values for representative compounds is given in the table below.

[2] = target: T2, A2 receptor (Rattus norvegicus, UniProt P30543); assay: In vitro binding to adenosine A2 receptor, [3H]-CGS 21680 radioligand; conditions: radioligand [3H]-CGS 21680; read-out: A2 receptor binding (Ki50)
T2 construct: from tissue
T2 sequence (P30543 whole entry): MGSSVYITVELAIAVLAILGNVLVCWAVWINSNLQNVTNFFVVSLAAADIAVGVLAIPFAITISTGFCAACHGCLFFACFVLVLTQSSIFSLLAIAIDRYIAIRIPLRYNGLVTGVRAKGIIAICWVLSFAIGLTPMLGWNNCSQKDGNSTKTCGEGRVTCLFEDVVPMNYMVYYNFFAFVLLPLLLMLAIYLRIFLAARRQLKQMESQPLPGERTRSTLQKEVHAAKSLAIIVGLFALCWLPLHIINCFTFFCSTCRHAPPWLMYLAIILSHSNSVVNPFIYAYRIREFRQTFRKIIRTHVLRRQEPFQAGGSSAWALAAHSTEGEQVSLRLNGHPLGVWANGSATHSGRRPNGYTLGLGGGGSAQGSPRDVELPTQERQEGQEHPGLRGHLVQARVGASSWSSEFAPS
Method: as §1, §2

Q: How did the “Ratio A2/A1” value [1] turn out when CN(C)Nc1nc(Cl)nc2c1ncn2[C@@H]1O[C@H](CO)[C@@H](O)[C@H]1O [Example 3, 2-Chloro-N-(N,N-dimethylamino)adenosine] was run?
A: 92

Q: What about the Ki [1] of the same molecule?
A: 0.018 µM

Q: What about the Ki [2] of the same molecule?
A: 1.66 µM

Q: Which results are given for OC[C@H]1O[C@@H](n2cnc3c(NOC4CCCC4)nc(Cl)nc32)[C@H](O)[C@@H]1O [Example 7, 2-Chloro-N-cyclopentyloxyadenosine]?
A: Ratio A2/A1 [1]: 429; Ki [1]: 0.0067 µM; Ki [2]: 2.88 µM

Q: What does the source list for CONc1nc(Cl)nc2c1ncn2[C@@H]1O[C@H](CO)[C@@H](O)[C@H]1O [Example 8, 2-Chloro-N-methoxyadenosine]?
A: Ratio A2/A1 [1]: 55; Ki [1]: 0.021 µM; Ki [2]: 1.15 µM
